Experimental data as given in patent US20120184517A1, “TREATMENT OF DISEASES WITH ALTERED SMOOTH MUSCLE CONTRACTILITY” (priority 2009, published 2012).

How the values were obtained:
[1] = target: T1, BKCa channel α (mSlo) and β1 subunits (Mus musculus, UniProt Q08460); experiment: Whole cell recording of HEK cells co-expressing α and β1 subunits; type: cell-based; conditions: HEK293 cells expressing both mSlo and β1 subunit
T1 construct: expressed in transfected cells; host or cells: HEK293
Procedure: Current was monitored with a ramp protocol; holding potential −60 mV, with ramp from −80 mV to +150 mV over 500 ms. Extracellular application of NS-1619 (10 μM) increased current as previously described (Olesen, et al., Selective activation of Ca^2+-dependent K^+ channels by novel benzimidazolone. Eur. J. Pharmacol., 1994. 251(1):53-9). […] Analysis was performed using tail analysis with normalization as previously described (Xia, et al., Multiple regulatory sites in large-conductance calcium-activated potassium channels. Nature, 2002. 418(6900):880-4). […] Identification of the BKCa channel was determined by conductance and inhibition by iberiotoxin and TEA. […] Murine femoral arterial rings were isolated and placed in a wire myograph. […] The figures shown are representative of 4 similar experiments. Error bars are standard error of the mean (SEM). Asterisk (*) indicates p<0.001.

[2] = system: OVA-sensitized mice; experiment: OVA induced acute asthma model, repeated i.p. rottlerin
Procedure: In this example, the acute asthma model in ovalbumin (OVA) treated mice was used (Jia, Y., R. Foronjy, and J. D'Armiento, Altered airway inflammatory response to cigarette smoke in ovalbumin-sensitized mice. Am J. Resp and Critical Care Medicine (2006) p. Suppl:A339.). […] Mice received an intraperitoneal injection (i.p) of 100 μg ovalbumin adsorbed to 2 mg aluminum (200 μl final volume) on day 0 and again on day 7. Control mice were injected with endotoxin free PBS. On alternative days 14-22, mice received a 20 minute aerosol challenge of either endotoxin-free PBS (controls) or 2% (w/v) OVA in endotoxin-PBS, using a lumiscope 6610 ultrasonic nebulizer (Lumiscope, East Rutherford, N.J.).
Two days after the last aerosol challenge, AHR was measured by invasive restrained whole body plethysmography (rWBP) (BUXCO Electronics Inc., Troy, N.Y.) in response to inhaled methacholine (Sigma, St. Louis, Mo.). For dynamic lung resistance, measurements were performed using the PLY3011 chamber (BUXCO). Mice were anesthetized with a cocktail of 25 mg per kg body weight ketamine hydrochloride (Bioniche Pharma, Lake Forest, Ill.) and 2.5 mg per kg body weight xylazine (Llyod Laboratories, Inc., Barangay Tikay, Malolos Bulacan, Philippines), tracheotomized, and immediately intubated with an 18-gauge catheter, followed by mechanical ventilation (Columbus Instruments International, Columbus, Ohio). Respiratory frequency was set at 150 breaths/minute with a tidal volume of 0.2 ml. Increasing concentrations of methacholine (0-50 mg/ml) were administered at the rate of 20 puffs per 10 seconds, with each puff of aerosol delivery lasting 10 ms, via a nebulizer aerosol system with a 4-6 μm aerosol particle size generated by a nebulizer head (Aeroneb®, Aerogen Ltd., Dangan, Galway, Ireland). The nebulizer is attached to a small aerosol block, which is placed in the inspiratory flow line. In this way the aerosol is injected directly into the airway. Baseline resistance was restored before administration of the subsequent doses of methacholine. The flow and pressure signals were measured and processed together to determine resistance and compliance using a software analyzer provided in BioSystem XA software (BUXCO Electronics Inc., Troy, N.Y.).
After measurement of airway responsiveness in vivo, mice were sacrificed and their serum collected and stored at −80° C. until analysis. Serum levels of OVA-specific IgE were measured by sandwich ELISA as described previously (Kanamaru, F., et al. “Costimulation via Glucocorticoid-Induced TNF Receptor in Both Conventional and CD25^+ Regulatory CD4^+ T Cells.” J Immunol., Vol. 172, pages 7306-7314 (2004)).
Bronchoalveolar lavage (BAL) was performed by injection of 1 ml saline (37° C.) through a tracheal cannula into the lung. Cells in the BAL were centrifuged and resuspended in cold PBS. For differential BAL cell counts, cytospin preparations were made and per cytospin, 200 cells were counted and differentiated by standard morphology and staining characteristics.
IL-4, IL-5 and IL-13 ELISAs were performed according to the manufacturer's instructions (R & D systems, Minneapolis, Minn.). The detection limits of the ELISAs were 60 pg/ml for IL-4, 32 pg/ml for IL-5, 15 pg/ml IL-13.
In this system mice are anesthetized and ventilated and through a cannula in the trachea, tracheal pressure and flow are continuously monitored and traditional pulmonary mechanics can be measured. This system is preferable over the method of oscillatory mechanics due to the consistency of measurements and the ability to directly measure pressure and flow. Changes in pressure, flow, and volume were recorded, and RL was calculated from peak values after each challenge (FIG. 14A).
After determining the airway hyperresponsiveness, lungs were lavaged with PBS and total cell count with differential was determined on the bronchoalveolar cells (BAL).

[3] = target: protein kinase A (PKA) (Homo sapiens, UniProt P17612); conditions: cited from earlier work
[4] = target: PKCδ (Homo sapiens, UniProt Q05655); conditions: rottlerin 20 μM, 0.1 mM ATP, phosphatidylserine; cited from earlier work
Chain of PKCδ (Q05655 whole entry): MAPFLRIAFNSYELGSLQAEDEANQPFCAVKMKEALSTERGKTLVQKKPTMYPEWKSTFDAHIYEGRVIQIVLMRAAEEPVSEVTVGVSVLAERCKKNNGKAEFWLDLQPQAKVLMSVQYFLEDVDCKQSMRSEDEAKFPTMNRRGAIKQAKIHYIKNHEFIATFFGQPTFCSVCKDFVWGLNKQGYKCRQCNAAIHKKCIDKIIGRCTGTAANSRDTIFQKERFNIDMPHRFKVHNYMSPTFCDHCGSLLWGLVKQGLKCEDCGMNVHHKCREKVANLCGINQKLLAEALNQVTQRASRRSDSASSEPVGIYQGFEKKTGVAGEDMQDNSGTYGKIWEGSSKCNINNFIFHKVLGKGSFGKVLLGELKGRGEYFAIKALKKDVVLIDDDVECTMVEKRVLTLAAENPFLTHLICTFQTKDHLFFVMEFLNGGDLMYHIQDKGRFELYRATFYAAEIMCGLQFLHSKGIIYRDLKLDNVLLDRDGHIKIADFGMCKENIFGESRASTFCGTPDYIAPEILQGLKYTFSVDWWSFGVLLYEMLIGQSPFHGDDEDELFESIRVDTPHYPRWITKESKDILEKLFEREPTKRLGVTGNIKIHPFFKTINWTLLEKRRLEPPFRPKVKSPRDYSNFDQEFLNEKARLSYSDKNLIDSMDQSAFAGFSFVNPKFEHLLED

[5] = system: CD4+ and CD8+ human T lymphocyte; conditions: dose-dependent; cited from earlier work

T1 sequence (Q08460 whole entry): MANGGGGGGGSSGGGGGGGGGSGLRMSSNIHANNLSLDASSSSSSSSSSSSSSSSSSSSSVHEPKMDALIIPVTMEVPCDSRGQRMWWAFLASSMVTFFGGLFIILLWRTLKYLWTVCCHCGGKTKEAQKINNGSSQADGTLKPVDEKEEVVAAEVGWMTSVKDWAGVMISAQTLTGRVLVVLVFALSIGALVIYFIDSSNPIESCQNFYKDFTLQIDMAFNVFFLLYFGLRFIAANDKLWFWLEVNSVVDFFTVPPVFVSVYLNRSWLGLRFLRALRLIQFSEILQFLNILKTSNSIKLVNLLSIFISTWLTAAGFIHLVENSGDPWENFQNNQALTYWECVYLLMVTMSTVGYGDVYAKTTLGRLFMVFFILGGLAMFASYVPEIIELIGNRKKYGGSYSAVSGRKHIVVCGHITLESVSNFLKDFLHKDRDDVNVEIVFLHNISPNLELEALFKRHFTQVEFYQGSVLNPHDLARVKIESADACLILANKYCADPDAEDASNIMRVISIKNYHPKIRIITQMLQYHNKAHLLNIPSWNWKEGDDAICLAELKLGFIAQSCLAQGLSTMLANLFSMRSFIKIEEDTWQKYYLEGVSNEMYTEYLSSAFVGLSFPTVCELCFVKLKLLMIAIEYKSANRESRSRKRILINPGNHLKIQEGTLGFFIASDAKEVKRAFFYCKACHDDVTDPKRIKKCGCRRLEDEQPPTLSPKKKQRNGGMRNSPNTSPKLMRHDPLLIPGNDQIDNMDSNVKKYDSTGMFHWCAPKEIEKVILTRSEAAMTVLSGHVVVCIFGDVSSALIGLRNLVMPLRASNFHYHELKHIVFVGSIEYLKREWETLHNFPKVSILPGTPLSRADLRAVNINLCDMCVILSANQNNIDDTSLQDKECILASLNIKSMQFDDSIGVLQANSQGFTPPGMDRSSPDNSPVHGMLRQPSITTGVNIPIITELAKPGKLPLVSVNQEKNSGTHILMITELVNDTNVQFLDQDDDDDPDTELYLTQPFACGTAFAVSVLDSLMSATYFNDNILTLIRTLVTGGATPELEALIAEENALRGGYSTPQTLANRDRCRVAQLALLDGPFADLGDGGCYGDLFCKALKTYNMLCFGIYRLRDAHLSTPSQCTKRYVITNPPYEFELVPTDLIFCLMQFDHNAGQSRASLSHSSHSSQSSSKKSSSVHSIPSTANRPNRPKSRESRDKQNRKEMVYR

CC(=O)c1c(O)c(C)c(O)c(Cc2c(O)c3c(c(C(=O)/C=C/c4ccccc4)c2O)OC(C)(C)C=C3)c1O [rottlerin, 5,7-dihydroxy-2,2-dimethyl-6-(2,4,6-trihydroxy-3-methyl-5-acetylbenzyl)-8-cinnamoyl-I,2-chromene]
channel activation [1]: activated the channel | serum OVA specific IgE ([2]; OVA+rottlerin versus OVA, 48 hours after last challenge): similar | Th2 cytokines IL-4, IL-5 and IL-13 in BALF ([2]; OVA-sensitized animals): significantly reduced | number of inflammatory leukocytes in BAL ([2]; OVA-sensitized mice): significant decrease | number of macrophages and eosinophils in BAL ([2]; OVA-sensitized mice): marked reduction | airway constriction ([2]; OVA-sensitized mice, 25 mg/ml methacholine challenge, rottlerin 5 mg per kg i.p.): decrease in airway constriction | airway resistance (RL) ([2]; OVA-sensitized mice, MCh 25-50 mg/ml, rottlerin 5 mg per kg i.p.): decrease in their airway resistance | airway constriction with isoproterenol ([2]; OVA-sensitized mice, isoproterenol i.p. 20, 40 and 100 μg after 50 mg/ml methacholine): significant decrease in airway constriction | cellular infiltrate in the peribronchial and perivascular regions ([2]; OVA-sensitized/challenged animals, H & E stain): significant reduction | airway resistance ([2]; PBS-sensitized animals): no effect | adverse effect, morbidity, mortality ([2]; rottlerin 5 mg per kg i.p., repeated): no significant adverse effect | IC50 [3]: 30 to 100 µM | effect on PKCδ activity [4]: virtually no effect | T lymphocyte proliferation [5]: inhibits
